In patent publication US6410558B1, “Fungicides for the control of take-all disease of plants” (Monsanto Technology LLC, priority 1991, dated 2002):

Key:
[1] = test system: Gaeumannomyces graminis var. tritici (Ggt); experiment: In vitro Assay: mycelial growth of Ggt on minimal media agar plates containing test compound; format: cell-based; conditions: dark, 19-20° C., 4 to 5 days, diameter of mycelial growth; for inhibition at 0.1 ppm / inhibition at 1 ppm / inhibition at 10 ppm: Gaeumannomyces graminis; for inhibition at 0.1 ppm / In vitro (ppm) 0.1, Percent Inhibition: 0.1 ppm in minimal media agar; for inhibition at 0.1 ppm: read-out: In vitro (ppm) 0.1, Percent Inhibition; for inhibition at 1 ppm / In vitro (ppm) 1, Percent Inhibition: 1 ppm in minimal media agar; for inhibition at 1 ppm: read-out: In vitro (ppm) 1, Percent Inhibition; for inhibition at 10 ppm / In vitro (ppm) 10, Percent Inhibition: 10 ppm in minimal media agar; for inhibition at 10 ppm: read-out: In vitro (ppm) 10, Percent Inhibition
How it was run: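 Compounds added from acetone stock into minimal (Czapek Dox) agar; plates inoculated with three 4-mm Ggt plugs, incubated in dark at 19-20° C for 4 to 5 days. Colony diameter measured; Percent Inhibition = [1-((treated mm −4)/(control mm −4))]×100.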

Ggt = experiment: In vivo Assay: control of Ggt on wheat grown in pots of Ggt-infested soil, root disease rating; parameters: species or system Gaeumannomyces graminis var. tritici; conditions: 0.5 mg active ingredient per pot, 'Bergen' or 'Anza' wheat in Ggt-infested soil, after four weeks, vs untreated control; for pest or weed control at 0.5 mg/pot: Gaeumannomyces graminis, 672 h, read-out: In vivo, percent disease control
How it was run: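 Wheat ('Bergen' or 'Anza') seeds in soil infested with Ggt-colonised oats (4% v/v) treated at 0.5 mg active ingredient per pot in acetone/water with Tween 20; five pots per treatment. After four weeks, seminal roots rated 0–5; trimmed mean of three replicates converted to percent disease control versus untreated.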

melting point [°C] | Compound | inhibition at 0.1 ppm [1] [%] | inhibition at 1 ppm [1] [%] | inhibition at 10 ppm [1] [%] | pest or weed control at 0.5 mg/pot (Ggt) [%] | In vitro (ppm) 0.1, Percent Inhibition [1] [%] | In vitro (ppm) 1, Percent Inhibition [1] [%] | In vitro (ppm) 10, Percent Inhibition [1] [%] | In vivo, percent disease control (Ggt) [%]
108 to 110 | CC1(c2cccc(F)c2C(=O)NCCCl)CCC1 [Example 199, N-(2-Chloroethyl)-2-fluoro-6-(1-methylcyclobutyl)benzamide] |  |  |  |  |  |  |  | 
 | CCN(CC)C(=O)c1c(F)ccc(F)c1[Si](C)(C)C [Example 56, N,N-Diethyl-3,6-difluoro-2-(trimethylsilyl)benzamide] | 10 | 31 | 74 | 91 |  |  |  | 
 | CC[C@H](C)NC(=O)c1c(Cl)cccc1[Si](C)(C)C [Example 152, 2-Chloro-N-(1-methylpropyl)-6-(trimethylsilyl)benzamide, (s)-] | < 0 | 71 | 86 | 54 |  |  |  | 
 | CC(C)N(O)C(=O)c1c(Cl)cccc1[Si](C)(C)C [Example 167, 2-Chloro-N-hydroxy-N-(1-methylethyl)-6-(trimethylsilyl)benzamide] | 46 | 86 | 96 | 93 |  |  |  | 
 | CCN(CC)C(=O)c1c(Cl)cccc1[Si](C(C)C)(C(C)C)C(C)C [Example 68, N,N-Diethyl-2-chloro-6-[tris(1-methylethyl)silyl]benzamide] | 8 | < 0 | 41 | < 0 |  |  |  | 
 | C=C[Si](C)(c1ccccc1)c1cccc(Cl)c1C(=O)NCC (stereo not drawn) [Example 202, 2-Chloro-6-(ethenylmethylphenylsilyl)-N-ethylbenzamide] | 33 | 58 | 88 | 3 |  |  |  | 
 | CCN(CC)C(=O)c1c(Cl)ccc(C)c1[Si](C)(C)C [Example 71, N,N-Diethyl-6-chloro-3-methyl-2-(trimethylsilyl)benzamide] | 14 | 8 | < 0 | 50 |  |  |  | 
 | CCN(CC)C(=O)c1c(Cl)cccc1[Si](C)(C)C [Example 39, 2-Chloro-N,N-diethyl-6-(trimethylsilyl)benzamide] | 49 | 82 | 92 | 99 |  |  |  | 
 | CC(C)NC(=O)c1c(Cl)cccc1[Si](C)(C)C [Example 21, 2-Chloro-N-(1-methylethyl)-6-(trimethylsilyl) benzarnide] |  |  |  |  | 100 | 100 | 100 | 100
 | CCNC(=O)c1c([Si](C)(C)C)ccc(CO)c1Cl [Example 227, 2-Chloro-N-ethyl-3-(hydroxymethyl)-6-(trimethylsilyl)benzamide] | 36 | 68 | 100 | 34 |  |  |  | 
 | CN(C(=O)c1cccc(F)c1[Si](C)(C)C)C(C)(C)C [Example 5, N-(1,1-Dimethylethyl)-3-fluoro-N-methyl-2-(trimethylsilyl)benzamide] | < 0 | < 0 | 29 | 24 |  |  |  | 
 | C[Si](C)(C)c1cccc(Cl)c1C(=O)NCCF [Example 155, 2-Chloro-N-(2-fluoroethyl)-6-(trimethylsilyl)benzamide] | < 0 | 64 | 90 | 93 |  |  |  | 
 | C=CCONC(=O)c1c([Si](C)(C)C)ccc(Cl)c1Cl [Example 204, 2,3-Dichloro-N-(2-propenyloxy)-6-(trimethylsilyl)benzamide] | < 0 | < 0 | 74 | 43 |  |  |  | 
 | CCN(CC)C(=O)c1c(C)cccc1[Si](C)(C)C [Example 3, N,N-Diethyl-2-methyl-6-(trimethylsilyl)benzamide] | 19 | 58 | 75 | 100 |  |  |  | 
 | CCNC(=O)c1c(Cl)cccc1OC(C)(C)C [Example 89, N-Ethyl-2-chloro-6-(1,1-dimethylethoxy)benzamide] | 19 | 85 | 100 | 96 |  |  |  | 
 | CCNC(=O)c1c([Si](C)(C)C)ccc(C=O)c1Cl [Example 223, 2-Chloro-N-ethyl-3-formyl-6-(trimethylsilyl)benzamide] | 48 | 93 | 96 | 82 |  |  |  | 
 | CCNC(=O)c1c([Si](C)(C)C)ccc(OC)c1Cl [Example 219, 2-Chloro-N-ethyl-3-methoxy-6-(trimethylsilyl)benzamide] | 50 | 94 | 100 | 97 |  |  |  | 
 | CCCNC(=O)c1c(Cl)cccc1[Si](C)(C)C [Example 26, 2-Chloro-N-propyl-6-(trimethylsilyl)benzamide] | 95 | 95 | 97 | 99 |  |  |  | 
 | CCN(CC)C(=O)c1c(C)ccc(F)c1[Si](C)(C)C [Example 1, N,N-Diethyl-3-fluoro-6-methyl-2-(trimethylsilyl)benzamide] | 6 | 53 | 74 | 91 |  |  |  | 
 | CCN(C(=O)c1ccccc1[Si](C)(C)C)C(OC)C(C)(C)C (stereo not drawn) [Example 187, N-Ethyl-N-(1-methoxy-2,2-dimethylpropyl)-2-(trimethylsilyl)benzamide] | 13 | 27 | 97 | 24 |  |  |  | 
 | CCN(CC)C(=O)c1c(Br)ccc(F)c1[Si](C)(C)C [Example 37, 6-Bromo-N,N-diethyl-3-fluoro-2-(trimethylsilyl)benzamide] | 17 | 63 | 87 | 83 |  |  |  | 
 | CCN(C(=O)c1c(Cl)cccc1[Si](C)(C)C)C(OC)C(C)(C)C (stereo not drawn) [Example 201, 2-Chloro-N-ethyl-N-(1-methoxy-2,2-dimethylpropyl)-6-(trimethylsilyl)benzamide] | 31 | 50 | 100 | 65 |  |  |  | 
 | C[Si](C)(C)c1cccc(Cl)c1C(=O)N1CCCCC1 [Example 134, N-[2-Chloro-6-(trimethylsilyl)benzoyl]-piperidine] | < 0 | 3 | 39 | < 0 |  |  |  | 
 | C[Si](C)(C)c1cccc(Cl)c1C(=O)Nc1ccccc1[N+](=O)[O-] [Example 160, 2-Chloro-N-(2-nitrophenyl)-6-(trimethylsilyl)benzamide] | 17 | 63 | 88 | 5 |  |  |  | 
 | CCN(CC)C(=O)c1c(Cl)ccc[c]1[Sn]([CH3])([CH3])[CH3] [Example 7, 2-Chloro-N,N-diethyl-6-(trimethylstannyl)benzamide] |  |  |  |  | 42 | 77 | 100 | 93
 | CCN(CC)C(=O)c1c(Cl)cccc1[Si](C)(C)c1ccccc1 [Example 67, N,N-Diethyl-2-chloro-6-(dimethylphenylsilyl)benzamide] | < 0 | 19 | 100 | < 0 |  |  |  | 
 | CCNC(=O)c1cc(Cl)ccc1[Si](C)(C)C [Example 213, 5-Chloro-N-ethyl-2-(trimethylsilyl)benzamide] | 9 | 82 | 79 | 87 |  |  |  | 
 | CCN(CC)C(=S)c1cccc(F)c1[Si](C)(C)C [Example 74, N,N-Diethyl-3-fluoro-2-(trimethylsilyl)thiobenzamide] | 7 | 31 | 93 | 47 |  |  |  | 
 | CCN(SC)C(=O)c1c(Cl)cccc1[Si](C)(C)C [Example 172, 2-Chloro-N-ethyl-N-(methylthio)-6-(trimethylsilyl)benzamide] | 94 | 100 | 100 | 99 |  |  |  | 
 | CCNC(=O)c1c(C)cccc1C(C)(C)C [Example 8, 2-(1,1-Dimethylethyl)-N-ethyl-6-methylbenzamide] | 19 | 97 | 100 | 85 |  |  |  | 
